Experiments:
Type in all cases: in vivo
[1] = system: Abutilon theophrasti (ABUTH); assay: Pre-emergence Test (glasshouse, percentage damage to the plant); conditions: 1000 g/ha unless otherwise stated; for percentage damage to the plant, ABUTH: five-point scale
[2] = system: Echinochloa crus-galli (ECHCG); assay: as above; conditions: 1000 g/ha unless otherwise stated; for percentage damage to the plant, ECHCG: five-point scale
Zea mays (ZEAMX) [3] = assay: as above; conditions: 1000 g/ha unless otherwise stated; for percentage damage to the plant, ZEAMX: five-point scale
Setaria faberi (SETFA) [4] = assay: as above; conditions: 1000 g/ha unless otherwise stated; for percentage damage to the plant, SETFA: five-point scale
[5] = system: Amaranthus retoflexus (AMARE); assay: as above; conditions: 1000 g/ha unless otherwise stated; for percentage damage to the plant, AMARE: five-point scale
[6] = system: Ipomoea hederacea (IPOHE); assay: as above; conditions: 1000 g/ha unless otherwise stated; for percentage damage to the plant, IPOHE: five-point scale
Setaria faberi (SETFA) [7] = assay: Post-emergence Test (glasshouse, percentage damage to the plant); conditions: 1000 g/ha unless otherwise stated, evaluated after 13 days; for Post-emergence Test SETFA, percentage damage to the plant (five-point scale): post-emergence spray
Protocol: (§1) Seeds of a variety of test species are sown in standard soil in pots (Amaranthus retoflexus (AMARE), Solanum nigrum (SOLNI), Setaria faberi (SETFA), Lolium perenne (LOLPE), Echinochloa crus-galli (ECHCG), Ipomoea hederacea (IPOHE), Abutilon theophrasti (ABUTH), Zea mays (ZEAMX), Amaranthus palmeri (AMAPA). After 8 days cultivation under controlled conditions in a glasshouse (at 24° C./16° C., day/night; 14 hours light; 65% humidity), the plants are sprayed with an aqueous spray solution derived from the formulation of the technical active ingredient in acetone/water (50:50) solution containing 0.5% Tween 20 (polyoxyethelyene sorbitan monolaurate, CAS RN 9005-64-5). Compounds are applied at 1000 g/ha unless otherwise stated. The test plants are then grown in a glasshouse under controlled conditions in a glasshouse (at 24° C./16° C., day/night; 14 hours light; 65% humidity) and watered twice daily. After 13 days the test is evaluated for the percentage damage caused to the plant. The biological activities are shown in the following table on a five-point scale (5=81-100%; 4=61-80%; 3=41-60%; 2=21-40%; 1=0-20%).

Zea mays (ZEAMX) [8] = assay: as above; conditions: 1000 g/ha unless otherwise stated, evaluated after 13 days; for Post-emergence Test ZEAMX, percentage damage to the plant (five-point scale): post-emergence spray
Protocol: as §1

[9] = system: Amaranthus retoflexus (AMARE); assay: as above; conditions: 1000 g/ha unless otherwise stated, evaluated after 13 days; for Post-emergence Test AMARE, percentage damage to the plant (five-point scale): post-emergence spray
Protocol: as §1

[10] = system: Ipomoea hederacea (IPOHE); assay: as above; conditions: 1000 g/ha unless otherwise stated, evaluated after 13 days; for Post-emergence Test IPOHE, percentage damage to the plant (five-point scale): post-emergence spray
Protocol: as §1

SMILES | percentage damage to the plant, ABUTH [1] | percentage damage to the plant, ECHCG [2] | percentage damage to the plant, ZEAMX (Zea mays (ZEAMX) [3]) | percentage damage to the plant, SETFA (Setaria faberi (SETFA) [4]) | percentage damage to the plant, AMARE [5] | percentage damage to the plant, IPOHE [6] | Post-emergence Test SETFA, percentage damage to the plant (five-point scale) (Setaria faberi (SETFA) [7]) | Post-emergence Test ZEAMX, percentage damage to the plant (five-point scale) (Zea mays (ZEAMX) [8]) | Post-emergence Test AMARE, percentage damage to the plant (five-point scale) [9] | Post-emergence Test IPOHE, percentage damage to the plant (five-point scale) [10] | percentage damage to the plant, ABUTH (five-point scale) ([1]; Abutilon theophrasti) | percentage damage to the plant, ECHCG (five-point scale) ([2]; Echinochloa crus-galli) | percentage damage to the plant, ZEAMX (five-point scale) (Zea mays (ZEAMX) [3]; Zea mays) | percentage damage to the plant, SETFA (five-point scale) (Setaria faberi (SETFA) [4]; Setaria faberi) | percentage damage to the plant, AMARE (five-point scale) ([5]; Amaranthus retoflexus) | percentage damage to the plant, IPOHE (five-point scale) ([6]; Ipomoea hederacea) | SETFA, percentage damage caused to the plant (five-point scale) (Setaria faberi (SETFA) [7]; post-emergence) | ZEAMX, percentage damage caused to the plant (five-point scale) (Zea mays (ZEAMX) [8]; post-emergence) | AMARE, percentage damage caused to the plant (five-point scale) ([9]; post-emergence) | IPOHE, percentage damage caused to the plant (five-point scale) ([10]; post-emergence)
CCn1c(C)c(-c2cc(C)c(Cl)c(C)c2)c(=O)c(C(=O)O)c1-c1ccc(Cl)cc1 [Compound 197, 5-(4-chloro-3,5-dimethyl-phenyl)-2-(4-chlorophenyl)-1-ethyl-6-methyl-4-oxo-pyridine-3-carboxylic acid] | 0 | 0 | 0 | 0 | 0 | 0 | 1 (1=0-20%) | 1 (1=0-20%) | 1 (1=0-20%) | 2 (2=21-40%) |  |  |  |  |  |  |  |  |  | 
CCn1c(C)c(-c2cc(F)c(F)c(F)c2)c(=O)c(C(=O)O)c1-c1ccc(Cl)cc1 [Compound 200, 2-(4-chlorophenyl)-1-ethyl-6-methyl-4-oxo-5-(3,4,5-trifluorophenyl)pyridine-3-carboxylic acid] |  |  |  |  |  |  |  |  |  |  | 3 (3=41-60%) | 3 (3=41-60%) | 0 | 2 (2=21-40%) | 0 | 2 (2=21-40%) | 3 (3=41-60%) | 2 (2=21-40%) | 1 (1=0-20%) | 3 (3=41-60%)
CCn1c(C)c(-c2cc(C(F)(F)F)ccc2F)c(=O)c(C(=O)O)c1-c1ccc(Cl)cc1 [Compound 177, 2-(4-chlorophenyl)-1-ethyl-5-[2-fluoro-5-(trifluoromethyl)phenyl]-6-methyl-4-oxo-pyridine-3-carboxylic acid] | 3 (3=41-60%) | 1 (1=0-20%) | 0 | 2 (2=21-40%) | 1 (1=0-20%) | 3 (3=41-60%) | 4 (4=61-80%) | 3 (3=41-60%) | 4 (4=61-80%) | 3 (3=41-60%) |  |  |  |  |  |  |  |  |  | 
CCn1c(C)c(-c2cc(F)cc(C#N)c2)c(=O)c(C(=O)O)c1-c1ccc(Cl)cc1 [Compound 190, 2-(4-chlorophenyl)-5-(3-cyano-5-fluoro-phenyl)-1-ethyl-6-methyl-4-oxo-pyridine-3-carboxylic acid] | 0 | 2 (2=21-40%) | 2 (2=21-40%) | 2 (2=21-40%) | 1 (1=0-20%) | 1 (1=0-20%) | 2 (2=21-40%) | 1 (1=0-20%) | 1 (1=0-20%) | 1 (1=0-20%) |  |  |  |  |  |  |  |  |  | 
CCn1c(C)c(-c2ccc(Cl)cc2Cl)c(=O)c(C(=O)O)c1-c1ccc(Cl)cc1 [Compound 193, 2-(4-chlorophenyl)-5-(2,4-dichlorophenyl)-1-ethyl-6-methyl-4-oxo-pyridine-3-carboxylic acid] | 2 (2=21-40%) | 1 (1=0-20%) | 1 (1=0-20%) | 2 (2=21-40%) | 2 (2=21-40%) | 0 | 4 (4=61-80%) | 2 (2=21-40%) | 5 (5=81-100%) | 3 (3=41-60%) |  |  |  |  |  |  |  |  |  | 
CCn1c(C)c(-c2cc(C(F)(F)F)ccc2Cl)c(=O)c(C(=O)O)c1-c1ccc(Cl)cc1 [Compound 183, 2-(4-chlorophenyl)-5-[2-chloro-5-(trifluoromethyl)phenyl]-1-ethyl-6-methyl-4-oxo-pyridine-3-carboxylic acid] | 0 | 0 | 0 | 0 | 0 | 0 | 2 (2=21-40%) | 3 (3=41-60%) | 3 (3=41-60%) | 3 (3=41-60%) |  |  |  |  |  |  |  |  |  | 
CCn1c(C)c(-c2ccc(C(F)(F)F)c(Cl)c2)c(=O)c(C(=O)O)c1-c1ccc(Cl)cc1 [Compound 170, 2-(4-chlorophenyl)-5-[3-chloro-4-(trifluoromethyl)phenyl]-1-ethyl-6-methyl-4-oxo-pyridine-3-carboxylic acid] | 0 | 0 | 0 | 0 | 1 (1=0-20%) | 0 | 1 (1=0-20%) | 2 (2=21-40%) | 5 (5=81-100%) | 3 (3=41-60%) |  |  |  |  |  |  |  |  |  | 
CCn1c(C)c(-c2ccc([N+](=O)[O-])cc2)c(=O)c(C(=O)O)c1-c1ccc(Cl)cc1 [Compound 194, 2-(4-chlorophenyl)-1-ethyl-6-methyl-5-(4-nitrophenyl)-4-oxo-pyridine-3-carboxylic acid] | 0 | 0 | 2 (2=21-40%) | 0 | 0 | 0 | 2 (2=21-40%) | 1 (1=0-20%) | 0 | 0 |  |  |  |  |  |  |  |  |  | 
CCn1c(C)c(-c2ccc(C#N)c(C(F)(F)F)c2)c(=O)c(C(=O)O)c1-c1ccc(Cl)cc1 [Compound 187, 2-(4-chlorophenyl)-5-[4-cyano-3-(trifluoromethyl)phenyl]-1-ethyl-6-methyl-4-oxo-pyridine-3-carboxylic acid] | 3 (3=41-60%) | 1 (1=0-20%) | 1 (1=0-20%) | 2 (2=21-40%) | 1 (1=0-20%) | 2 (2=21-40%) | 2 (2=21-40%) | 2 (2=21-40%) | 3 (3=41-60%) | 3 (3=41-60%) |  |  |  |  |  |  |  |  |  | 
